Source: patent publication US9790536B2, “Methods for assaying alpha-L-iduronidase enzymatic activity” (University of Washington, priority 2007, dated 2017)

Target: T1, α-L-iduronidase (IdA; EC 3.2.1.76) (Homo sapiens, UniProt P35475)
T1 construct: Incubation with IdA present in DBS leads to enzymatic release of the iduronyl group; from tissue; host or cells: dried blood spot (DBS) extract, 3-mm punch
T1 sequence (P35475 28-653): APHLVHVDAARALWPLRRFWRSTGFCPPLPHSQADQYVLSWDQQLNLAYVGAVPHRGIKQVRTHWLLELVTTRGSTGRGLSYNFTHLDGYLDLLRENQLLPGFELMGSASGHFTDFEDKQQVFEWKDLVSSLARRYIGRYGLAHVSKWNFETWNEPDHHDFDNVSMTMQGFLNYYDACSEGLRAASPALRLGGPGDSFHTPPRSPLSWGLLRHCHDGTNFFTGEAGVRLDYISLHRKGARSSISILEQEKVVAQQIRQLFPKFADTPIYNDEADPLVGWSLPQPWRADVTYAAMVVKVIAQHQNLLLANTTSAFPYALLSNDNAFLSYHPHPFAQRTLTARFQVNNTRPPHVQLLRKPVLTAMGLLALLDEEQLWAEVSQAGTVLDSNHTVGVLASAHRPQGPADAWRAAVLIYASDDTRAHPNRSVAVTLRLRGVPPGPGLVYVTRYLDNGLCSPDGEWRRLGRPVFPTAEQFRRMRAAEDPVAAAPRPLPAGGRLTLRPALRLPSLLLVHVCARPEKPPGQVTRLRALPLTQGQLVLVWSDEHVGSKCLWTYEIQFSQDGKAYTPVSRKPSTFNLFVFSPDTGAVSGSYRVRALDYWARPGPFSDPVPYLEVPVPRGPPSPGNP
Test: ESI-MSMS assay of α-L-iduronidase enzymatic activity in dried blood spots (IdA-P formed as a function of IdA-S concentration)
Type: biochemical
Conditions: IdA in DBS extract; 37° C., 20 h; IdA-S 0 to 0.67 mmol/L; fit to Michaelis-Menten equation (FIG. 7)
Experimental: A representative method of the invention for assaying α-L-iduronidase enzymatic activity by tandem mass spectrometry is described in Example 3. […] The amount of IdA-P increases linearly with incubation time from 0 to 30 h (FIG. 6); 20 h was chosen as the standard incubation time for the assay described in Example 3. The amount of IdA-P formed at 20 h increased in a hyperbolic fashion as the concentration of IdA-S increased from 0 to 0.67 mmol/L, and Km was determined to be 0.2 mmol/L (FIG. 7). An IdA-S concentration of 0.5 mmol/L was chosen in order to be under saturation conditions. The amount of IdA-P increases with the surface area of added DBS (FIG. 8), with a plateau reached at higher blood amounts (presumably due to the presence of endogenous inhibitors in the DBS). In one embodiment, the method uses a 3-mm-DBS punch.
A single 3-mm diameter DBS (containing ˜3.6 μL of blood) was obtained with a leather punch and was placed in a 1-mL Eppendorf tube. Extraction buffer [160 μL of 0.1 mol/L sodium formate pH 3.4 containing 75 μmol/L D-saccharic acid 1,4-lactone (Sigma); storage at −20° C.] was added to the tube. […]
Extraction of IdA-P and IdA-IS from the enzymatic reaction and blank was performed by addition of 250 μL of ethyl acetate. […] The sample was analyzed within the first 45 seconds of infusion, and after 1 min, the MSMS signal has returned to the background level. […]

CC(C)(C)OC(=O)NCCCCNC(=O)Cc1cc(=O)oc2cc(O[C@@H]3O[C@@H](C(=O)O)[C@@H](O)[C@H](O)[C@H]3O)ccc12 [IdA-S, (N-[4″-(tert-butoxycarbonylamino)-butyl]) 7-O-(α-L-idopyranosyluronic acid)coumarin-4-acetamide]
Km: 200 µM
